Results reported in patent publication US20110171275A1, “GASTRORETENTIVE DRUG DELIVERY SYSTEM, PREPARATION METHOD AND USE THEREOF” (TEAM ACADEMY OF PHARMACEUTICAL SCIENCE, priority 2008, published 2011).

Experiment: Solubility in artificial gastric juice versus artificial intestinal fluid
Format: physicochemical
Conditions: artificial gastric juice vs artificial intestinal fluid
Method: Rosiglitazone is a second-generation thiazolidinedione hypoglycemic agent. Gastric floating tablets of rosiglitazone reported in the literature are prepared by conventional preparation techniques for gastric floating tablets as follows: the hydrophilic gel material with high viscosity, i.e., hydroxypropyl methyl cellulose (HPMC) is selected, to which appropriate amount of foaming agent is added, and then the resulting mixture is compressed into tablets by direct powder compression. The resulting gastric floating tablets are claimed to have the same bioavailability with common tablets administered in a multiple doses [Hao Feng, Zhimin Wang, Dawei Chen, Studies on floating sustained release tablets of rosiglitazone maleate, Journal of China Pharmaceutical University, 2002, 33 (3): 196-199]. […] The gas-vesicle-type floating formulation of the present invention can ensure that the density of the formulation is relatively small (generally<0.6 g/cm^3), thereby it can float at the early stage of administration, since the shape of the capsule keeps unchange in the stomach. Thus, the entire volume of the formulation remains relatively stable, so that stable and sustainable floating capacity is achieved.

CN(CCOc1ccc(CC2SC(=O)NC2=O)cc1)c1ccccn1 (stereo not shown) [rosiglitazone]
solubility in artificial gastric juice relative to artificial intestinal fluid: about a million times more
